From the supplement of paper PMC10307832

How the values were obtained:
Assay in all cases: relative viability (nuclei count vs DMSO), 5 days (fraction); higher = more cells survive
[1] = compound: CC[C@H](CO)Nc1nc(NCc2ccccc2)c2ncn(C(C)C)c2n1 [Seliciclib] + CC(=O)Nc1cccc(-n2c(=O)n(C3CC3)c(=O)c3c(Nc4ccc(I)cc4F)n(C)c(=O)c(C)c32)c1 [Trametinib] (partner 0.02 µM)
Summary of the method: (§1)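 Lung cancer cell lines were seeded in 1536-well plates and dosed by pin tool the next day, with either a single drug or a fixed anchor-drug dose combined with five library-drug doses (not always all listed) spaced in √10 steps. Five days later, one step fixed the cells and stained their nuclei (final 0.05% Triton X-100, 1% formaldehyde, 1 ug/ml Hoechst), and nuclei were counted on 4× images. Relative viability is the nuclei count in treated wells divided by the count in vehicle wells, and each value is the median of duplicate plates.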

[2] = compound: CC[C@H](CO)Nc1nc(NCc2ccccc2)c2ncn(C(C)C)c2n1 [Seliciclib] + CC(C)C[C@H](NC(=O)[C@H](Cc1ccccc1)NC(=O)c1cnccn1)B(O)O [Bortezomib] (partner 0.002 µM)
Summary of the method: as §1

[3] = compound: CC[C@H](CO)Nc1nc(NCc2ccccc2)c2ncn(C(C)C)c2n1 [Seliciclib] + CS(=O)(=O)N1CCN(Cc2cc3nc(-c4cccc5[nH]ncc45)nc(N4CCOCC4)c3s2)CC1 [Pictilisib] (partner 1 µM)
Summary of the method: as §1

[4] = compound: CC[C@H](CO)Nc1nc(NCc2ccccc2)c2ncn(C(C)C)c2n1 [Seliciclib] + O=C(c1cc(Cc2n[nH]c(=O)c3ccccc23)ccc1F)N1CCN(C(=O)C2CC2)CC1 [Olaparib] (partner 8 µM)
Summary of the method: as §1

Cell Line	relative viability ([1]; first compound 0.08 µM)	relative viability ([1]; first compound 0.253 µM)	relative viability ([1]; first compound 0.8 µM)	relative viability ([1]; first compound 2.53 µM)	relative viability ([1]; first compound 8 µM)	relative viability ([2]; first compound 0.08 µM)	relative viability ([2]; first compound 0.253 µM)	relative viability ([2]; first compound 0.8 µM)	relative viability ([2]; first compound 2.53 µM)	relative viability ([2]; first compound 8 µM)	relative viability ([3]; first compound 0.08 µM)	relative viability ([3]; first compound 0.253 µM)	relative viability ([3]; first compound 0.8 µM)	relative viability ([3]; first compound 2.53 µM)	relative viability ([3]; first compound 8 µM)	relative viability ([4]; first compound 0.08 µM)	relative viability ([4]; first compound 0.253 µM)	relative viability ([4]; first compound 0.8 µM)	relative viability ([4]; first compound 2.53 µM)	relative viability ([4]; first compound 8 µM)
LCLC-103H	0.666	0.711	0.647	0.681	0.682	0.94	1.03	0.92	0.939	1.01	0.819	0.673	0.627	0.434	0.576	0.671	0.81	0.748	0.774	0.704
LOU-NH91		0.702	0.786	0.745	0.752	0.5	0.519	0.518	0.408	0.399	0.49	0.573	0.495	0.484	0.468		0.93	0.891	0.925	0.782
LU99A	0.586	0.484	0.5	0.485	0.393	1.16	1.05	1.01	0.94	0.803	0.349	0.301	0.374	0.229	0.284	0.252	0.264	0.284	0.279	0.278
LXF-289	0.65	0.725	0.646	0.661	0.627	0.981	1.11	0.904	0.971	0.838	0.779	0.86	0.701	0.595	0.724	1.06	1.12	1.03	1.04	0.772
NCI-H23	0.428	0.343	0.406	0.297	0.308	0.84	0.776	1.1	0.496	0.895	0.507	0.462	0.395	0.283	0.365	0.346	0.31	0.377	0.269	0.262
NCI-H322M	0.536	0.487	0.495	0.473	0.399	1.21	1.4	1.18	1.23	1.09	0.523	0.583	0.494	0.449	0.379	0.722	0.969	0.561	0.758	0.749
NCI-H441	0.563	0.552	0.557	0.241	0.454	0.662	0.429	0.314	0.406	0.531	0.49	0.635	0.531	0.469	0.377	0.525	0.451	0.562	0.466	0.448
NCI-H460	0.176	0.137	0.132	0.115	0.102	1.14	1.26	1.09	1.48	0.912	0.367	0.376	0.275	0.248	0.252	0.496	0.517	0.472	0.458	0.359
NCI-H520	0.617	0.411	0.669	0.599	0.625	0.521	0.507	0.581	0.679	0.429	0.305	0.326	0.287	0.318	0.252	0.327	0.396	0.318	0.346	0.388
NCI-H596	0.814		0.75	0.837	0.58	1.1	0.892	0.96	1.19	0.914	0.376	0.36	0.403	0.421	0.415	0.724		0.695	0.781	0.764
NCI-H647	0.392	0.37	0.427	0.512	0.508	0.789	0.849	0.941	1.05	0.891	0.367	0.45	0.25	0.296	0.248	0.526	0.433	0.512	0.649	0.313
NCI-H650	0.96	1.08	1.01	0.863	0.877	0.764	0.813	1.15		0.682	0.887	0.869	1.04		0.772	0.354	0.368	0.417	0.305	0.37
NCI-H661	0.59	0.581	0.5	0.491	0.416	0.778	0.871	0.675	0.79	0.58	0.362	0.404	0.375	0.295	0.354	0.674	0.768	0.695	0.724	0.674
NCI-H727	0.388	0.443	0.399	0.377	0.335	0.759	0.774	0.578	0.585	0.716	0.43	0.338	0.197	0.232	0.296	0.873	0.805	0.596	0.74	0.731
NCI-H838	0.516	0.485	0.523	0.449	0.451	0.82	0.879	0.762	0.727	0.487	0.469	0.468	0.432	0.408	0.294	0.729	0.765	0.762	0.773	0.635
NCI-H1355	0.391	0.336	0.477	0.474	0.415	1.16	1.1	1.23	1.03	1.11	0.426	0.452	0.359	0.452	0.429	0.715	0.697	0.727	0.779	0.635
NCI-H1437	0.5	0.551	0.562	0.398	0.401	0.436	0.524	0.47	0.422	0.39	0.484	0.377	0.439	0.394	0.331	0.641	0.665	0.595	0.607	0.431
